Patent US20260315483A1, “HETEROCYCLIC COMPOUNDS AS TRIGGERING RECEPTOR EXPRESSED ON MYELOID CELLS 2 AGONISTS AND METHODS OF USE” (VIGIL NEUROSCIENCE, INC., priority 2023, published 2026)

Target: T1, human TREM2 (Homo sapiens, UniProt Q9NZC2)
T1 construct: expressed in transfected cells; host or cells: HEK293T-hTREM2 cells (HEK cell line expressing human TREM2 and DAP12)
Assay: In vitro measurement of TREM2 activity using cellular phosphorylation of spleen tyrosine kinase (Syk), AlphaLisa, HEK293T-hTREM2 cells
Format: cell-based
Conditions: HEK293T cells expressing human TREM2 and DAP12, 45 min at room temperature
Protocol: In Vitro Measurement of Triggering Receptor Expressed on Myeloid Cells 2 Activity Using Cellular Phosphorylation of Spleen Tyrosine Kinase (“Syk”) Assays
Measurement of TREM2 agonist potency was done using a HEK cell line expressing human TREM2 and DAP12 (HEK293T-hTREM2 cells). Binding of small molecules to, and activation of, TREM2 increases the phosphorylation of Syk. The resultant levels of Syk phosphorylation are measured using a commercial AlphaLisa reagent kit. To perform the assay, HEK-hTREM2 cells were plated at 14,000 cells per well in a 384 well plate, in 25 μL of complete growth media and incubated at 37° C., 5% CO2 for 20-24 hours.
Prior to the assay, test compounds were diluted in the 384 well plates in assay buffer and allowed to equilibrate for 30 minutes. Growth media was removed from cell plates by inversion on blotting paper, and 25 μL of test articles in assay buffer was added to cells. Cells were incubated for 45 minutes at room temperature. After 45 minutes, assay buffer was removed and 10 μL of lysis buffer was added. Plates were shaken for 20 minutes at 350 RPM at room temperature. After complete lysis, AlphaLisa reagents were added to the lysate, and fluourescence intensity was measured using a Perkin Elmer Envision plate reader. Intensities were used to generate a standard curve, and % activation was calculated. Curve fitting was performed using Prism v9 software, log(agonist) vs response—variable slope (four parameters), and EC50s were calculated from the curve fit.
The results presented in Tables D and D-2 have been generated with the in vitro assay described above. This assay may be used to test any of the compounds described herein to assess and characterize a compound's ability to act as an agonist of TREM2.

T1 sequence (Q9NZC2 19-230): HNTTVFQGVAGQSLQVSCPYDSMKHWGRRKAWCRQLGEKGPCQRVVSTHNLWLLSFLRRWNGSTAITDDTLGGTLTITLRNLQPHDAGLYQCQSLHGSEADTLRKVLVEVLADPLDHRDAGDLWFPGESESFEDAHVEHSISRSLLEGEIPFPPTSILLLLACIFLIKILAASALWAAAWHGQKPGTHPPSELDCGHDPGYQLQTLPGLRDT
T1 sequence (O43914 22-113 partner): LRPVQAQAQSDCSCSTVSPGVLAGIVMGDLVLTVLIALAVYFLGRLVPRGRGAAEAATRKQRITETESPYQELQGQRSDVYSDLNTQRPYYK

| SMILES | EC50 (Table D-2) | EC50 (Table D) |
| --- | --- | --- |
| C[C@@H]1CN(c2cc3c(c(C4CCC(C(F)(F)F)CC4)n2)CN(C)C3=O)C[C@H](c2cnn(C3CC3)c2)O1 (mixture of isomers) [compound 227, 6-[(2S,6R)-2-(1-cyclopropylpyrazol-4-yl)-6-methyl-morpholin-4-yl]-2-methyl-4-[4-(trifluoromethyl)cyclohexyl]-3H-pyrrolo[3,4-c]pyridin-1-one] | 50 to 500 nM |  |
| CN(C)c1nc2nc(C3CCO[C@@H](c4cnn(C5CC5)c4)C3)nc(-c3cc(F)ccc3F)c2s1 (mixture of isomers) [compound 104, 7-(2,5-difluorophenyl)-N,N-dimethyl-5-[rac-(2R)-2-(1-cyclopropylpyrazol-4-yl)tetrahydropyran-4-yl]thiazolo[4,5-d]pyrimidin-2-amine] |  | 50 to 500 nM |
| CN(C)c1nc2nc([C@@H]3CCO[C@@H](c4cnn(C5CC5)c4)C3)nc(-c3cc(F)c(Cl)cc3F)c2s1 (racemic) [compound 106, 7-(4-chloro-2,5-difluoro-phenyl)-N,N-dimethyl-5-[rac-(2R,4R)-2-(1-cyclopropylpyrazol-4-yl)tetrahydropyran-4-yl]thiazolo[4,5-d]pyrimidin-2-amine] |  | 3000 to 100000 nM |
| CN(C)c1nc2nc(C3CCO[C@@H](c4cnn(C5CC5)c4)C3)nc(-c3ccc(F)c(F)c3F)c2s1 (stereo in doubt) [compound 107, 5-[(2R,4R)-2-(1-cyclopropylpyrazol-4-yl)tetrahydropyran-4-yl]-N,N-dimethyl-7-(2,3,4-trifluorophenyl)thiazolo[4,5-d]pyrimidin-2-amine] |  | ≤ 50 nM |
| CN(C)c1nc2nc(C3CCO[C@@H](c4cnn(C5CC5)c4)C3)nc(-c3ccc(F)c(F)c3F)c2s1 (stereo in doubt) [compound 108, 5-[(2R,4S)-2-(1-cyclopropylpyrazol-4-yl)tetrahydropyran-4-yl]-N,N-dimethyl-7-(2,3,4-trifluorophenyl)thiazolo[4,5-d]pyrimidin-2-amine] |  | 50 to 500 nM |
| CN(C)c1nc2nc([C@H]3CCO[C@@H](c4ccc(=O)n(C)c4)C3)nc(-c3ccc(F)cc3F)c2s1 (stereo in doubt) [compound 119, 5-[(2R,4S)-4-[7-(2,4-difluorophenyl)-2-(dimethylamino)thiazolo[4,5-d]pyrimidin-5-yl]tetrahydropyran-2-yl]-1-methyl-pyridin-2-one] |  | 50 to 500 nM |
| CN(C)c1nc2nc([C@@H]3CCO[C@H](c4ccc(=O)n(C)c4)C3)nc(-c3ccc(F)cc3F)c2s1 (stereo in doubt) [compound 120, 5-[(2S,4R)-4-[7-(2,4-difluorophenyl)-2-(dimethylamino)thiazolo[4,5-d]pyrimidin-5-yl]tetrahydropyran-2-yl]-1-methyl-pyridin-2-one] |  | ≤ 50 nM |
| CN(C)c1nc2nc([C@H]3CCO[C@H](c4ccc(=O)n(C)c4)C3)nc(-c3ccc(F)cc3F)c2s1 (stereo in doubt) [compound 121, 5-[(2S,4S)-4-[7-(2,4-difluorophenyl)-2-(dimethylamino)thiazolo[4,5-d]pyrimidin-5-yl]tetrahydropyran-2-yl]-1-methyl-pyridin-2-one] |  | 50 to 500 nM |
| CN(C)c1nc2nc(N3CCO[C@@H](c4cnn(C5CC5)c4)C3)nc(-c3ccc(F)cc3F)c2s1 [compound 100, 5-[(2S)-2-(1-cyclopropylpyrazol-4-yl)morpholin-4-yl]-7-(2,4-difluorophenyl)-N,N-dimethyl-thiazolo[4,5-d]pyrimidin-2-amine] |  | ≤ 50 nM |
| CN(C)c1nc2nc(N3CCO[C@H](c4cnn(C5CC5)c4)C3)nc(-c3ccc(F)cc3F)c2s1 [compound 101, 5-[(2R)-2-(1-cyclopropylpyrazol-4-yl)morpholin-4-yl]-7-(2,4-difluorophenyl)-N,N-dimethyl-thiazolo[4,5-d]pyrimidin-2-amine] |  | 50 to 500 nM |
| C[C@@H]1CN(c2nc(-c3ccc(C(F)F)cc3F)c3sc(N(C)C)nc3n2)C[C@H](c2cnn(C3CC3)c2)O1 [compound 102, 5-[(2S,6R)-2-(1-cyclopropylpyrazol-4-yl)-6-methyl-morpholin-4-yl]-7-[4-(difluoromethyl)-2-fluoro-phenyl]-N,N-dimethyl-thiazolo[4,5-d]pyrimidin-2-amine] |  | ≤ 50 nM |
